Patent US20130130223A1, “NOVEL CONDITIONALLY IMMORTALIZED HUMAN PROXIMAL TUBULE CELL LINE EXPRESSING FUNCTIONAL INFLUX AND EFFLUX TRANSPORTERS” (priority 2009, published 2013)

Key:
OCT2/SLC22A2 = biological target: T1, OCT2/SLC22A2 (Homo sapiens, UniProt O15244); assay: OCT2/SLC22A2 activity (basolateral ASP uptake); type: cell-based
T1 construct: investigated in ciPTEC-14.4 by measuring the activity and expression of the solute carrier tansporter (SLC) OCT2/SLC22A2; endogenous in cells; host or cells: ciPTEC-14.4 grown on Transwell filters
T1 sequence (O15244 1-555): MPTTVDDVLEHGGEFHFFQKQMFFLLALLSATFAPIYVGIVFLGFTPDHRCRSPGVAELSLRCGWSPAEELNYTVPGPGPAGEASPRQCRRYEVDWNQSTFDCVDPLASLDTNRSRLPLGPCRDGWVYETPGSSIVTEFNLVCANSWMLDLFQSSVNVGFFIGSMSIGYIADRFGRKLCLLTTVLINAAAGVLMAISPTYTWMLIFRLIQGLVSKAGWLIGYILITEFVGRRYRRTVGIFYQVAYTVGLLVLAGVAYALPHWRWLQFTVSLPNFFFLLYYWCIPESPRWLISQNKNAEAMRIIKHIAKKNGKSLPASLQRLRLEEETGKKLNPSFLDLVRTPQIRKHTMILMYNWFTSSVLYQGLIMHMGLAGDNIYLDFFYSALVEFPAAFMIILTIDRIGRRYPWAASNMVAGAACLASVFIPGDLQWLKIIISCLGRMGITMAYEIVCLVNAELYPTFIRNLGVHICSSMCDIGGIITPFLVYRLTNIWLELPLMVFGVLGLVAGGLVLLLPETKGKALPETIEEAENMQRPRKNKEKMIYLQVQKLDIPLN
Procedure: Transport of xenobiotics across the basolateral membrane was investigated in ciPTEC-14.4 by measuring the activity and expression of the solute carrier tansporter (SLC) OCT2/SLC22A2 using a method adapted from Brown et al. Cells were grown on Transwell®-Clear polyester membranes as described before. Activity of OCT2 was measured by incubating 1 μM fluorescent OCT2 substrate 4-(4-(dimethylamino)styryl)-N-methylpyridinium iodide (ASP, Invitrogen) in Hepes-Tris buffer for 1 min at 37° C. at the basal compartment. To inhibit OCT2 mediated uptake, cells were exposed to 100 μM tetrapentylammonium (TPA) at both apical and basal compartments for 10 min prior to uptake of ASP. Additionally, one set of experiments was performed at 4° C. After incubation, transport was arrested using 1 mM ice-cold TPA. Cells were homogenized using 250 μl Hepes-Tris-Triton (0.1%) buffer for 30 min, followed by analyzing fluorescence intensity (excitation 450 nm, emission 642 nm) using Victor3 Multiplate Reader (Perkin Elmer Inc.). Data are expressed as mean+i-SE.

ciPTEC-14.4 = assay: Albumin uptake by endocytosis (BSA-FITC uptake); type: cell-based, human
Procedure: The ability of ciPTEC-14.4 to reabsorb albumin was investigated by the incubation of confluent monolayers in 24 well plates with 50 μg/ml BSA-FITC (Sigma-Aldrich) for 30 min at 37° C. unless described otherwise. Uptake was arrested using ice-cold PBS and cells were detached using trypsin, fixed by paraformaldehyde (0.5%) in PBS and analyzed using flow cytometry or immuno-fluorescence microscopy. Concentration- and temperature-dependent uptake, was investigated using a concentration range BSA-FITC (0; 3.7; 11; 33; 100; 300 μg/ml) at 37° C. and on ice for 30 min. Uptake inhibition was studied in three independent experiments by incubating the cells with BSA-FITC (50 μg/ml) in addition of excess unlabelled BSA (10 mg/ml) or recombinant RAP (1 μM), which was a kind gift of Dr. M. Nielsen (University of Aarhus, Denmark). Uptake inhibition by RAP was further examined using a dilution range of RAP. BSA uptake in saturation experiments are plotted as mean fluorescence intensity and in inhibition experiments as mean (+/−SE) percentage uptake compared to control condition.
(§1) Michaelis-Menten curve fitting for calculation of Km and Vmax values was performed by non-linear regression analysis using GraphPad Prism 4.03 software. Differences in substrate transport in presence or absence of inhibitors or unlabelled analogues were assessed by a paired t-test.

OK cells = conditions: reference [12]; cited from earlier work
[1] = tested on: opossum kidney (OK) cells; conditions: reference [20], read-out: Km of apical phosphate transport; cited from earlier work
[2] = tested on: sodium-dependent transporters NaPi-IIa (SLC34A1) and NaPi-IIc (SLC34A3); assay: Sodium-dependent phosphate uptake (32PO4); type: cell-based, human
Procedure: Phosphate uptake was performed in confluent monolayers using 32PO4 (Perkin Elmer, Waltham Mass., USA) as described earlier. Cells cultured for 10 days at 37° C. were incubated with 0.2 mM KH2PO4 (10 μCi/ml) for 5 min in four independent experiments, in the presence of 137 mM sodium or 137 mM NMDG to study sodium-dependent transport. Additionally, time- (0.5; 1; 2; 5; 10; 15; 30 or 60 min) and concentration-dependent (0.02; 0.07; 0.22; 0.66 or 2 mM PO4) uptake was studied. Data are expressed as mean+/−SE.
as §1

Molecule: CCCCC[N+](CCCCC)(CCCCC)CCCCC [TPA, tetrapentylammonium]
- inhibition at 1 min, 100 μM (OCT2/SLC22A2; 100 μM TPA, 1 μM ASP, 1 min 37° C., basal compartment, p<0.05, read-out: inhibition of ASP transport): 36%

Molecule: unlabelled FITC: excess unlabelled bovine serum albumin used as competitor of BSA-FITC uptake
- inhibition of BSA-FITC uptake (ciPTEC-14.4; 200-fold excess unlabelled (10 mg/ml), BSA-FITC 50 μg/ml, p<0.01): 54%

Molecule: albumin
- apparent Km of albumin uptake (OK cells): 20 µg/mL

Molecule: BSA-FITC: FITC labelled bovine serum albumin
- apparent Km of BSA-FITC uptake (ciPTEC-14.4; ciPTEC-14.4, passage 20-25, 30 min, 37° C.): 126 µg/mL

Molecule: CN(C)c1ccc(/C=C/c2cc[n+](C)cc2)cc1 [ASP, 4-(4-(dimethyl-amino)styryl)-N-methylpyridinium iodide]
- inhibition at 1 min, 1 μM (OCT2/SLC22A2): 30%

Molecule: O=P([O-])(O)O.[K+] [phosphate, KH2PO4]
- Km [1]: 370 µM
- decrease of phosphate uptake in the absence of sodium ([2]; 0.2 mM Pi, 5 min, NMDG as sodium replacement, p<0.001): approximately 86%
- Km ([2]; ciPTEC-14.4, read-out: apparent Km of sodium-dependent phosphate uptake): 120 µM

B1: RAP: recombinant receptor associated protein, known inhibitor of albumin endocytosis by binding to multi-ligand receptor megalin (protein, UniProt P30533 35-357, looked up)
Alpha-2-macroglobulin …: YSREKNQPKPSPKRESGEEFRMEKLNQLWEKAQRLHLPPVRLAELHADLKIQERDELAWKKLKLDGLDEDGEKEARLIRNLNVILAKYGLDGKKDARQVTSNSLSGTQEDGLDDPRLEKLWHKAKTSGKFSGEELDKLWREFLHHKEKVHEYNVLLETLSRTEEIHENVISPSDLSDIKGSVLHSRHTELKEKLRSINQGLDRLRRVSHQGYSTEAEFEEPRVIDLWDLAQSANLTDKELEAFREELKHFEAKIEKHNHYQKQLEIAHEKLRHAESVGDGERVSRSREKHALLEGRTKELGYTVKKHLQDLSGRISRARHNEL
- inhibition of BSA-FITC uptake (ciPTEC-14.4; 1 μM RAP, BSA-FITC 50 μg/ml, 30 min 37° C., p<0.05): 41%
- inhibition of BSA-FITC uptake, dilution range of RAP (ciPTEC-14.4; BSA-FITC 50 μg/ml): inhibited the uptake of BSA-FITC in a concentration-dependent manner
